Measured values: patent publication US20020111532A1, “Tris(hydroxymethyl)phosphino compounds as tissue crosslinking agents” (priority 2000, published 2002)

Assay: Shrinkage Temperature Assay (differential scanning calorimetric analysis)
Type: physicochemical
Settings: bovine pericardium crosslinked overnight at room temperature; THPP 10 mg/mL in PBS or 0.25% glutaraldehyde
Experimental: Tissue Crosslinking: Bovine pericardium tissue was cut into ˜1 cm^2 samples and rinsed in ˜1 L ultrafiltered H2O for about 30 min with stirring. The samples were then rinsed in PBS for an additional 30 min at room temperature with shaking.
Samples were left in solution overnight at room temperature. Samples were then rinsed 5×30 min in ˜200 mL PBS each rinse, and then either tested immediately or stored in 0.01 M HEPES with 40% isopropyl alcohol until testing.
Shrinkage Temperature Assay: The shrinkage temperature of some crosslinked samples was determined using standard differential scanning calorimetric analysis. Briefly, 2-10 mg of tissue was heated at 10° C. increments under nitrogen. Typically, an endotherm is seen in the range of 60° C.-90° C., and this endotherm is attributed to a shrinkage transition.

## O=CCCCC=O [Glutaraldehyde, glutaraldehyde]
  Shrink Onset Temperature: 86.04 °C
